From US10150728B2, “Alkylene derivatives” (Shionogi & Co., Ltd., priority 2013, dated 2018)
pIC50: −log10 of the molar value.

Assays:
recombinant human ACC2 = recombinant human ACC2 (Homo sapiens (Human), UniProt O00763); assay: Measurement of inhibitory activity on human ACC2 (MALDI-TOF MS, acetyl CoA to malonyl CoA conversion); assay type: biochemical
Procedure, shortened: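 His-tagged human ACC2 (residues 27–2458) from baculovirus-infected Sf-9 cells was preincubated 1 h in pH 7.4 HEPES-KOH buffer with MgCl2, 6-10 mM potassium citrate, glutathione and BSA. Substrate solution held 1 mM ATP, 0.8 mM acetyl CoA and 25-50 mM bicarbonate. After 1–3 h at room temperature, malonyl CoA/(malonyl+acetyl CoA) was read by negative-mode MALDI-TOF MS; citrate, bicarbonate and time varied by enzyme lot.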

recombinant human ACC1 = recombinant human ACC1 (Homo sapiens (Human), UniProt Q13085); assay: Measurement of inhibitory activity on human ACC1 (MALDI-TOF MS, acetyl CoA to malonyl CoA conversion); assay type: biochemical
Excerpt: Preparation 2: Preparation of Recombinant Human ACC1
After a cDNA encoding human ACC1 (1 amino acid residue to 2346 amino acid residues from the N-terminus) was cloned from human liver cDNA library (BioChain), human ACC1 gene containing myc-tag and His-tag sequence at 3′ terminus was inserted into pIEXBAC3 (Novagen). Recombinant baculovirus was generated using FlashBACGOLD system (Oxford Expression Technologies) according to the manufacturer's protocol. To express human ACC1, Sf-9 cells were infected with recombinant baculovirus. After infected cells were disrupted, the filtrated lysate was subjected to Ni-affinity chromatography and anion-exchange chromatography. The fractions containing human ACC1 protein were pooled as recombinant human ACC1 solution.
The Measurement of Inhibitory Activity on Human ACC1 and the ACC2
Recombinant human ACC1 and recombinant human ACC2, which were prepared by the method mentioned above, were preincubated with assay buffer solution (50 mM HEPES-KOH (pH 7.4), 10 mM magnesium chloride, 6-10 mM potassium citrate, 4 mM reduced form of glutathione, 1.5 mg/ml bovine serum albumin) for one hour. Then, 0.2 μL of each this invention compound solution (in DMSO) were dispensed to 384-well microplate, 5 μL of the preincubated enzyme solution and 5 μL of substrate solution (50 mM HEPES-KOH (pH 7.4), 1 mM ATP, 0.8 mM acetyl CoA and 25-50 mM potassium bicarbonate) were added to microplate. After centrifugation and shaking, the reaction mixtures were incubated in a humidified box at room temperature for 1 to 3 hours. After the incubation, the enzyme reactions were stopped by the addition of EDTA. Then, after the samples were cocrystallized with CHCA (α-cyano-4-hydroxy cinnamic acid) matrices on MALDI target plate, by using the matrix assist laser […] time-of-flight mass spectrometer (MALDI-TOF MS), samples were measured in reflector negative mode. Deprotonated ions of acetyl CoA (AcCoA) of substrate and malonyl CoA (MalCoA) of the reaction product were detected, then, the conversion rates of acetyl CoA to malonyl CoA was calculated by the intensity of [MalCoA-H]−/(Intensity of [MalCoA-H]−+Intensity of [AcCoA-H]−) using each signal strength. […] In addition, potassium citrate concentrations in assay buffer solution, potassium hydrogen carbonate concentrations in substrate solution and incubation time were adjusted by each lot of enzyme.

recombinant human ACC2, sequence (O00763 27-2458): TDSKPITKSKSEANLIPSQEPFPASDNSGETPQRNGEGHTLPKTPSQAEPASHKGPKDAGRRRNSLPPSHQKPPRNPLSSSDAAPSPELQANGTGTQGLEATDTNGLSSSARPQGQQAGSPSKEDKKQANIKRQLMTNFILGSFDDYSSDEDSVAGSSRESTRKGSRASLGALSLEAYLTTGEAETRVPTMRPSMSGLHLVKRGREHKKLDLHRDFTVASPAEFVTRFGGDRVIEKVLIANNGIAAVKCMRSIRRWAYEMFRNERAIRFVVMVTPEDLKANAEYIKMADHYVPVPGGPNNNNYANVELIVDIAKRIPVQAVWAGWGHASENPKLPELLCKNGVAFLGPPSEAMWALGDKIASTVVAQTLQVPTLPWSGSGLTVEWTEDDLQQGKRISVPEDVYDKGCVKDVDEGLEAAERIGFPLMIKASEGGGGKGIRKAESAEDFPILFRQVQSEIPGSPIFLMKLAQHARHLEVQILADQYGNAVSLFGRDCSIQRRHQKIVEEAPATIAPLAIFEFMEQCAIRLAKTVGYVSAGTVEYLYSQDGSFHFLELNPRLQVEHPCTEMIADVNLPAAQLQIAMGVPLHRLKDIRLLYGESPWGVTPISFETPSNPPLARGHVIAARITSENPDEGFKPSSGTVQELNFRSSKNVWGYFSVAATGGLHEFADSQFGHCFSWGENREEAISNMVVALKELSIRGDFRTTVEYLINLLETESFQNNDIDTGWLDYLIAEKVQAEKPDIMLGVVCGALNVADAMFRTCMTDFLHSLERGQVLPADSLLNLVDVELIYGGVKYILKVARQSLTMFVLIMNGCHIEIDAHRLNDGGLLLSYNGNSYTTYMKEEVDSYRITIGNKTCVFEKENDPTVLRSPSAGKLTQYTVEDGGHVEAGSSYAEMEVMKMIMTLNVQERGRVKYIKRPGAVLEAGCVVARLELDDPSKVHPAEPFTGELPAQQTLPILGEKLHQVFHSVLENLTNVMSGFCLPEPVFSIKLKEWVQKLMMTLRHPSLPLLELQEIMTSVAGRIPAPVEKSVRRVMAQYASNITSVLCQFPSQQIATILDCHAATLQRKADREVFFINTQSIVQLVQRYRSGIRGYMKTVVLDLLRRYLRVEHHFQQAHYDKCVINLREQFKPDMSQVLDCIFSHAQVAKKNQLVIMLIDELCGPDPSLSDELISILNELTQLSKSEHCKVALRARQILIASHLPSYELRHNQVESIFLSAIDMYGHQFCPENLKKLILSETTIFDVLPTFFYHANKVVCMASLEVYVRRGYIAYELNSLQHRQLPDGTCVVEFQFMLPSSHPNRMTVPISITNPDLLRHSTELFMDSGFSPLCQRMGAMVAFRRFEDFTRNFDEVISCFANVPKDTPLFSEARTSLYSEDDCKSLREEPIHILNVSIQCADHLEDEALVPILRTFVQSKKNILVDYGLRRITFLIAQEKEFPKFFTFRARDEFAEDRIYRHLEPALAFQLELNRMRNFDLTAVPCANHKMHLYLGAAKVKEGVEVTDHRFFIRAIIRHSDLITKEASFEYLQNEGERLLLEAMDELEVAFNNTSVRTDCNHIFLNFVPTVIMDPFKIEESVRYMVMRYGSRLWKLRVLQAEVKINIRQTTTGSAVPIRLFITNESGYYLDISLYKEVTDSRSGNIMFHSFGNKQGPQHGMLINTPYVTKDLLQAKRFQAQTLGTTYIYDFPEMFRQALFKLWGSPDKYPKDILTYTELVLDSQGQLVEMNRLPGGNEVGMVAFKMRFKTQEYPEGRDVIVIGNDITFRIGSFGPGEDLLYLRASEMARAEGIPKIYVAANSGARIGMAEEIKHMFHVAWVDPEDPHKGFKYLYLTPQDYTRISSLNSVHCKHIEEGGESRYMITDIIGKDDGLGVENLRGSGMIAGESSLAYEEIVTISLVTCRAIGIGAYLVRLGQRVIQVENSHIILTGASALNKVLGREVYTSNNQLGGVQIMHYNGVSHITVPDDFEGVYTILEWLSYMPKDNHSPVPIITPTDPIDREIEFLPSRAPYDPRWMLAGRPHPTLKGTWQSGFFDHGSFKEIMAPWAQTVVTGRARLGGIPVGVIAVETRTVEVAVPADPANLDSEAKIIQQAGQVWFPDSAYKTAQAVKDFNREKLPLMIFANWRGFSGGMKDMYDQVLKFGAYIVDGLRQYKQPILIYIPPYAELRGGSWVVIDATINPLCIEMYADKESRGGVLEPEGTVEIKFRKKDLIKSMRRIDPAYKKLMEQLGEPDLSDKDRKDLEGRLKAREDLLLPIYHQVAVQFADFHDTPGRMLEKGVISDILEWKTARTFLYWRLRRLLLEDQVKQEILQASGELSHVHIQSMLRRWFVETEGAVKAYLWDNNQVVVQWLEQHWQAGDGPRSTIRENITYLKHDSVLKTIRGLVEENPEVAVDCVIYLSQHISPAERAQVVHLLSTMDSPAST

Structure (SMILES)	pIC50 (recombinant human ACC2; Table 154)	pIC50 (recombinant human ACC1)	pIC50 (recombinant human ACC2; Tables 155-159)
CC(=O)N[C@@H](C)CC(=O)c1ccc(Oc2ccc(OCC3CC3)cc2Cl)cc1 [Compound I-001]	7.15	< 4.00	
CC(=O)N[C@@H](C)CC(=O)c1cnc(Oc2ccc(OCC3CC3)cc2Cl)s1 [Compound I-002]	6.11	< 4.00	
CCCc1ccc(Oc2ccc(OC[C@H](C)NC(=O)OC(C)(C)C)cn2)c(Cl)c1 [Compound I-003]		< 4.00	
CC(=O)N[C@@H](C)COc1cnc(Oc2ccc3nc(C(C)C)oc3c2Cl)cn1 [Compound I-037]	6.78	< 4.00	
CCn1c(=O)sc2c(F)c(Oc3cnc(O[C@@H](C)[C@H](C)NC(C)=O)cn3)ccc21 [Compound I-058]		< 4.00	
CC(=O)N[C@@H](C)CO[C@H]1CC[C@H](Oc2ccc3nn(C(C)C)cc3c2Cl)CC1 [Compound I-067]	6.03	< 4.00	
CC(=O)N[C@@H](C)CO[C@H]1CC[C@H](Oc2ncc3cc(Br)ccc3n2)CC1 [Compound I-079]	5.75	< 4.00	
CC(=O)N[C@@H](C)COc1cnc(Oc2ccc3nc(C(C)C)ncc3c2Cl)cn1 [Compound I-081]	6.46	< 4.00	
CC(=O)N[C@@H](C)COc1cnc(Oc2ccc(C(=O)NC3CCOCC3)c(F)c2F)cn1 [Compound I-091]		< 4.00	
CC(=O)N[C@@H](C)CO[C@H]1C[C@H](COc2ccc3nc(C(C)(F)F)sc3c2Cl)C1 [Compound I-098]	6.10	< 4.00	
CCOc1nc2ccc(OC[C@H]3C[C@H](OC[C@H](C)NC(C)=O)C3)c(C#N)c2s1 [Compound I-103]	5.35	< 4.00	
CC(=O)N[C@H]1CCC[C@@H]1Oc1ccc(Oc2ccc3nc(C(C)C)sc3c2Cl)cn1 [Compound I-106]	7.04	< 4.00	
CC(=O)N[C@@H](C)CO[C@H]1CC[C@H](Oc2nc3cnc(OC[C@@H](C)F)c(Cl)c3n2C)CC1 [Compound I-724]			8.05
CCOc1cc2c(nc(O[C@H]3CC[C@H](OC[C@H](C)NC(C)=O)CC3)n2C)c(Cl)c1Cl [Compound I-725]			7.00
CC(=O)N[C@@H](C)CO[C@H]1CC[C@H](Oc2nc3c(C)nc(OC4CC4)c(Cl)c3n2C)CC1 [Compound I-726]			8.05
CC(=O)N[C@@H](C)CO[C@H]1CC[C@H](Oc2nc3c(Cl)nc(C4CC4)c(Cl)c3n2C)CC1 [Compound I-727]			6.71
CC(=O)N[C@@H](CF)CO[C@H]1CC[C@H](Oc2nc3cnc(OCC(F)F)c(Cl)c3n2C)CC1 [Compound I-728]			8.10
C[C@@H](CO[C@H]1CC[C@H](Oc2nc3c(F)cc(OC4CC4)c(F)c3n2C)CC1)NC(=O)CC#N [Compound I-729]			8.40

Structure (SMILES)	pIC50 (recombinant human ACC2; Table 154)	pIC50 (recombinant human ACC1)	pIC50 (recombinant human ACC2; Tables 155-159)
CC(=O)N[C@@H](CC#N)CO[C@H]1CC[C@H](Oc2nc3cnc(OCC(F)F)c(Cl)c3n2C)CC1 [Compound I-730]			6.04
CC(=O)N[C@@H](C)[C@@H](C)O[C@H]1CC[C@H](Oc2nc3cnc(OCC(F)F)c(Cl)c3n2C)CC1 [Compound I-732]			6.59
CC(=O)N[C@@H](C)CO[C@H]1CC[C@H](Oc2nc3c(F)c(Cl)c(OCC(F)F)c(F)c3n2C)CC1 [Compound I-733]			8.05
CC(=O)N[C@@H](C)CO[C@H]1CC[C@H](Oc2nc3c(F)cc(OC4CC4)cc3n2C)CC1 [Compound I-734]			8.40
CCOc1ccc2nc(O[C@H]3CC[C@H](OC[C@H](C)NC(C)=O)CC3)n(C)c2c1C1CC1 [Compound I-735]			6.17
CC(=O)N[C@@H](C)CO[C@H]1CC[C@H](Oc2nc3cnc(OC(F)F)c(Cl)c3n2C)CC1 [Compound I-736]			7.06
CC(=O)N[C@@H](C)CO[C@H]1CC[C@H](Oc2nc3c(F)cc(OCC4CC4)cc3n2C)CC1 [Compound I-737]			7.48
CC(=O)N[C@@H](C)CO[C@H]1CC[C@H](Oc2nc3c(Br)cc(OCc4ccccc4)cc3n2C)CC1 [Compound I-738]			7.46
CCOc1cc(Cl)c2nc(O[C@H]3CC[C@H](OC[C@H](C)NC(C)=O)CC3)n(C)c2c1Cl [Compound I-739]			8.15
CCOc1cc(F)c2nc(O[C@H]3CC[C@H](OC[C@H](C)NC(C)=O)CC3)n(C)c2c1Cl [Compound I-740]			8.52
CC(=O)N[C@@H](C)CO[C@H]1CC[C@H](Oc2nc3c(F)cc(OCC(F)F)c(F)c3n2C)CC1 [Compound I-741]			8.15
CC(=O)N[C@@H](C)CO[C@H]1CC[C@H](Oc2nc3c(Cl)cc(OCC(F)F)c(F)c3n2C)CC1 [Compound I-742]			7.89
CC(=O)N[C@@H](C)CO[C@H]1CC[C@H](Nc2nc3c(F)cc(OCC(F)F)c(F)c3n2C)CC1 [Compound I-744]			6.13
CC(=O)N[C@@H](C)CC(O)[C@@H]1CC[C@@H](Oc2nc3c(F)cc(OCC(F)F)c(F)c3n2C)CO1 (some centres unmarked) [Compound I-745]			6.31
CC(=O)N[C@@H](C)[C@@H](C)O[C@H]1CC[C@H](Oc2nc3cnc(OC4CC4)c(F)c3n2C)CC1 [Compound I-746]			6.46
CC(=O)N[C@@H](C)CO[C@H]1CC[C@H](Oc2nc3c(F)c(C#N)c(OCC(F)F)c(F)c3n2C)CC1 [Compound I-747]			7.36
CC(=O)N[C@@H](C)CC[C@H]1OC[C@H](Oc2nc3c(F)cc(OCC(F)F)c(Cl)c3n2C)CO1 [Compound I-748]			8.30
